Measured values as given in patent US20230085307A1, “PYRIDAZINONE COMPOUND AND HERBICIDE” (NISSAN CHEMICAL CORPORATION, priority 2019, published 2023).

How the values were obtained:
late watergrass = assay: Test Example 1: herbicidal activity, application before weed generation under submerged conditions (Table 16, symbol A); assay type: in vivo, late watergrass (Echinochloa oryzicola); conditions: 320 g/ha applied herbicide
How it was run: (§1)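 Alluvial soil was flooded to 4 cm depth, weed seeds were sown mixed and 2.5-leaf rice seedlings were transplanted. On sowing day, the compound's emulsion, diluted in water to a set dose, was applied to the water surface. Plants grew at 25–30 °C and were scored 0–5 after three weeks.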

oval-leafed pondweed [1] = assay: Test Example 1: herbicidal activity, application before weed generation under submerged conditions (Table 16, symbol C); assay type: in vivo, oval-leafed pondweed (Monochoria vaginalis); conditions: 320 g/ha applied herbicide
How it was run: as §1

Japanese bulrush = assay: Test Example 2: herbicidal activity, application during weed generation under submerged conditions (Table 17, symbol B); assay type: in vivo, Japanese bulrush (Schoenoplectus juncoides); conditions: AAH 320 g/ha; application during weed generation, submerged conditions
How it was run: (§2)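 Effect on each weed is rated three weeks post-treatment, using the same scoring criteria as the preceding test. Plants grow from mixed-sown seed in flooded alluvial soil (4 cm water) at 25° C. to 30° C., and are treated at one to two leaves with diluted emulsion dropped onto the water.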

oval-leafed pondweed [2] = assay: Test Example 2: herbicidal activity, application during weed generation under submerged conditions (Table 17, symbol C); assay type: in vivo, oval-leafed pondweed (Monochoria vaginalis); conditions: AAH 320 g/ha; application during weed generation, submerged conditions
How it was run: as §2

rice flat sedge = assay: Test Example 3: herbicidal effect by foliage application, Wagner pot (Table 18, symbol E); assay type: in vivo, rice flat sedge (Cyperus iria); conditions: amount of applied herbicide 320 g/ha
How it was run: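 Plants were sown in alluvial soil held under 0.1–0.5 cm standing water and grown 14 days in a greenhouse at 25–30 °C. An emulsifiable formulation, water-diluted to the set dose, was then sprayed onto the foliage, and effects were scored three weeks later using previously defined criteria.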

wild oat = assay: Test Example 4: herbicidal effect by soil treatment (Table 19, symbol I); assay type: in vivo, wild oat (Avena fatua); conditions: amount of applied herbicide 320 g/ha
How it was run: (§3)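 Scoring uses the grading scale of an earlier test, three weeks post-application. Treatment consists of spraying a diluted emulsion formulation across the surface of sterilized diluvial soil in which seeds are buried near 1.5 cm deep; boxes are kept in a greenhouse between 25° C. and 30° C.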

Italian ryegrass = assay: Test Example 4: herbicidal effect by soil treatment (Table 19, symbol K); assay type: in vivo, Italian ryegrass (Lolium multiflorum); conditions: amount of applied herbicide 320 g/ha
How it was run: as §3

windgrass = assay: Test Example 4: herbicidal effect by soil treatment (Table 19, symbol L); assay type: in vivo, windgrass (Apera spica-venti); conditions: amount of applied herbicide 320 g/ha
How it was run: as §3

persian speedwell [3] = assay: Test Example 4: herbicidal effect by soil treatment (Table 19, symbol R); assay type: in vivo, Persian speedwell (Veronica persica); conditions: amount of applied herbicide 320 g/ha
How it was run: as §3

southern crabgrass = assay: Test Example 5: herbicidal effect by foliage application, plastic box (Table 20, symbol F); assay type: in vivo, southern crabgrass (Digitaria ciliaris); conditions: foliage application, 320 g/ha, evaluated three weeks after application
How it was run: (§4)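 Post-emergence foliar test in sterilized diluvial soil. Compound applied as water-diluted emulsion at a predetermined rate to 14-day-old plants; evaluation at three weeks.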

green foxtail = assay: Test Example 5: herbicidal effect by foliage application, plastic box (Table 20, symbol G); assay type: in vivo, green foxtail (Setaria viridis); conditions: foliage application, 320 g/ha, evaluated three weeks after application
How it was run: as §4

barnyard grass = assay: Test Example 5: herbicidal effect by foliage application, plastic box (Table 20, symbol H); assay type: in vivo, barnyard grass (Echinochloa crus-galli); conditions: foliage application, 320 g/ha, evaluated three weeks after application
How it was run: as §4

velvetleaf = assay: Test Example 5: herbicidal effect by foliage application, plastic box (Table 20, symbol M); assay type: in vivo, velvetleaf (Abutilon theophrasti); conditions: foliage application, 320 g/ha, evaluated three weeks after application
How it was run: as §4

redroot pigweed = assay: Test Example 5: herbicidal effect by foliage application, plastic box (Table 20, symbol N); assay type: in vivo, redroot pigweed (Amaranthus retroflexus); conditions: foliage application, 320 g/ha, evaluated three weeks after application
How it was run: as §4

chickweed = assay: Test Example 5: herbicidal effect by foliage application, plastic box (Table 20, symbol P); assay type: in vivo, common chickweed (Stellaria media); conditions: foliage application, 320 g/ha, evaluated three weeks after application
How it was run: as §4

persian speedwell [4] = assay: Test Example 5: herbicidal effect by foliage application, plastic box (Table 20, symbol R); assay type: in vivo, Persian speedwell (Veronica persica); conditions: foliage application, 320 g/ha, evaluated three weeks after application
How it was run: as §4

| Compound | Herbicidal effect on A: late watergrass (grade 0-5) (late watergrass) | Herbicidal effect on C: oval-leafed pondweed (grade 0-5) (oval-leafed pondweed [1]) | herbicidal effect rating, B: Japanese bulrush (Japanese bulrush) | herbicidal effect rating, C: oval-leafed pondweed (oval-leafed pondweed [2]) | herbicidal effect on E: rice flat sedge (rice flat sedge) | I: wild oat, herbicidal effect rating (wild oat) | K: Italian ryegrass, herbicidal effect rating (Italian ryegrass) | L: windgrass, herbicidal effect rating (windgrass) | R: persian speedwell, herbicidal effect rating (persian speedwell [3]) | herbicidal effect on F: southern crabgrass (criteria 0-5) (southern crabgrass) | herbicidal effect on G: green foxtail (criteria 0-5) (green foxtail) | herbicidal effect on H: barnyard grass (criteria 0-5) (barnyard grass) | herbicidal effect on M: velvetleaf (criteria 0-5) (velvetleaf) | herbicidal effect on N: redroot pigweed (criteria 0-5) (redroot pigweed) | herbicidal effect on P: chickweed (criteria 0-5) (chickweed) | herbicidal effect on R: persian speedwell (criteria 0-5) (persian speedwell [4]) |
| --- | --- | --- | --- | --- | --- | --- | --- | --- | --- | --- | --- | --- | --- | --- | --- | --- |
| Cc1nn(C)c(=O)c(-c2c(-c3ccc(OC4CC4)cc3)sc3ccc(F)cc23)c1O [2-217] | 5 (Herbicidal rate of 90% or more (almost completely withered)) | 4 (Herbicidal rate of 70% or more and less than 90%) | 3 (Herbicidal rate of 40% or more and less than 70%) | 0 (Herbicidal rate of 5% or less (almost no effect)) | 5 (Herbicidal rate of 90% or more (almost completely withered)) | 0 (Herbicidal rate of 5% or less (almost no effect)) | 4 (Herbicidal rate of 70% or more and less than 90%) | 0 (Herbicidal rate of 5% or less (almost no effect)) | 4 (Herbicidal rate of 70% or more and less than 90%) | 3 (Herbicidal rate of 40% or more and less than 70%) | 4 (Herbicidal rate of 70% or more and less than 90%) | 5 (Herbicidal rate of 90% or more (almost completely withered)) | 5 (Herbicidal rate of 90% or more (almost completely withered)) | 5 (Herbicidal rate of 90% or more (almost completely withered)) | 5 (Herbicidal rate of 90% or more (almost completely withered)) | 5 (Herbicidal rate of 90% or more (almost completely withered)) |
| CCCC(=O)Oc1c(C)nn(C)c(=O)c1-c1c(-c2ccc(OC3CC3)cc2)sc2ccc(F)cc12 [2-218] | 5 (Herbicidal rate of 90% or more (almost completely withered)) | 5 (Herbicidal rate of 90% or more (almost completely withered)) | 3 (Herbicidal rate of 40% or more and less than 70%) | 3 (Herbicidal rate of 40% or more and less than 70%) | 5 (Herbicidal rate of 90% or more (almost completely withered)) | 0 (Herbicidal rate of 5% or less (almost no effect)) | 4 (Herbicidal rate of 70% or more and less than 90%) | 0 (Herbicidal rate of 5% or less (almost no effect)) | 4 (Herbicidal rate of 70% or more and less than 90%) | 0 (Herbicidal rate of 5% or less (almost no effect)) | 2 (Herbicidal rate of 20% or more and less than 40%) | 4 (Herbicidal rate of 70% or more and less than 90%) | 5 (Herbicidal rate of 90% or more (almost completely withered)) | 2 (Herbicidal rate of 20% or more and less than 40%) | 5 (Herbicidal rate of 90% or more (almost completely withered)) | 5 (Herbicidal rate of 90% or more (almost completely withered)) |
